Experiments:
Settings in all cases: oocyte
[1] = biological target: T1, Solute carrier organic anion transporter family member 1A5 (Rattus norvegicus, UniProt O88397); assay: (§1) TP_TRANSPORTER: uptake in Xenopus laevis oocytes; type: functional, cell-based, Oocyte
T1 sequence (O88397 whole entry): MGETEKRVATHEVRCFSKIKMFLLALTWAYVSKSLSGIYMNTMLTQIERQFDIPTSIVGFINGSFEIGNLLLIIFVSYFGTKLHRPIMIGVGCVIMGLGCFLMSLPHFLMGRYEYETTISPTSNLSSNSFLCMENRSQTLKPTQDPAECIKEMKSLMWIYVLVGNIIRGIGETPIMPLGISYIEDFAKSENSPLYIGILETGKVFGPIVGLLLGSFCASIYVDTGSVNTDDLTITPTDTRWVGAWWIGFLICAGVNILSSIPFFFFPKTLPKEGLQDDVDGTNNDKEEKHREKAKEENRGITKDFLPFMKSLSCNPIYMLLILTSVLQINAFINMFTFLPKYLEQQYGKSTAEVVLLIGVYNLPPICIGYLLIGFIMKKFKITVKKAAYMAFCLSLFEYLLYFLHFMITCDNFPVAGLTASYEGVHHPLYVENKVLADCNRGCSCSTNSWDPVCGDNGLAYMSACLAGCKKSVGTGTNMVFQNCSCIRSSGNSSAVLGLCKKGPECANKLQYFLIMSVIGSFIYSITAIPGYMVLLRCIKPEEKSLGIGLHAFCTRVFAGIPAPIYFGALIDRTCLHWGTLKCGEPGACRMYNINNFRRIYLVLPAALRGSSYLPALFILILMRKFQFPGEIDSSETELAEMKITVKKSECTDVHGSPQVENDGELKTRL

[2] = biological target: T2, Solute carrier organic anion transporter family member 1B2 (Rattus norvegicus, UniProt Q9QZX8); assay: as §1; type: functional, cell-based
T2 sequence (Q9QZX8 whole entry): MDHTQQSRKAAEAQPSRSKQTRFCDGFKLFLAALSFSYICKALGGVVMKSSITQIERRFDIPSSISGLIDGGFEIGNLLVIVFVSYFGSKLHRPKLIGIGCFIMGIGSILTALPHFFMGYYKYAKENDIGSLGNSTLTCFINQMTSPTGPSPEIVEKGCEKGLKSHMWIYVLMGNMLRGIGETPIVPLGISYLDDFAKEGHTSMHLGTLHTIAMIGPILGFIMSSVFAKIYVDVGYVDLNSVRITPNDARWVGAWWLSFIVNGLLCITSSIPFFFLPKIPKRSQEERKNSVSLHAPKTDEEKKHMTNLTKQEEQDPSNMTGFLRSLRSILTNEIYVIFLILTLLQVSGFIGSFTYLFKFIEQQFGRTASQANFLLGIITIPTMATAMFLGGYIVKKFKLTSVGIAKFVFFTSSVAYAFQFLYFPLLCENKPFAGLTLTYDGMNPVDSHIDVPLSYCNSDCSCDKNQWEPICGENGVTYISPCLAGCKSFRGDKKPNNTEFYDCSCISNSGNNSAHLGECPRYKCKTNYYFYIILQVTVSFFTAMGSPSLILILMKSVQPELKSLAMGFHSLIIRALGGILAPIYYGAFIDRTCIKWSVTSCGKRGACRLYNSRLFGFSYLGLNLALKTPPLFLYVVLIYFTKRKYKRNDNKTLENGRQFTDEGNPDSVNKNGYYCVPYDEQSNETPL

[3] = biological target: T3, Solute carrier organic anion transporter family member 1A4 (Rattus norvegicus, UniProt O35913); assay: as §1; type: functional, cell-based
T3 sequence (O35913 whole entry): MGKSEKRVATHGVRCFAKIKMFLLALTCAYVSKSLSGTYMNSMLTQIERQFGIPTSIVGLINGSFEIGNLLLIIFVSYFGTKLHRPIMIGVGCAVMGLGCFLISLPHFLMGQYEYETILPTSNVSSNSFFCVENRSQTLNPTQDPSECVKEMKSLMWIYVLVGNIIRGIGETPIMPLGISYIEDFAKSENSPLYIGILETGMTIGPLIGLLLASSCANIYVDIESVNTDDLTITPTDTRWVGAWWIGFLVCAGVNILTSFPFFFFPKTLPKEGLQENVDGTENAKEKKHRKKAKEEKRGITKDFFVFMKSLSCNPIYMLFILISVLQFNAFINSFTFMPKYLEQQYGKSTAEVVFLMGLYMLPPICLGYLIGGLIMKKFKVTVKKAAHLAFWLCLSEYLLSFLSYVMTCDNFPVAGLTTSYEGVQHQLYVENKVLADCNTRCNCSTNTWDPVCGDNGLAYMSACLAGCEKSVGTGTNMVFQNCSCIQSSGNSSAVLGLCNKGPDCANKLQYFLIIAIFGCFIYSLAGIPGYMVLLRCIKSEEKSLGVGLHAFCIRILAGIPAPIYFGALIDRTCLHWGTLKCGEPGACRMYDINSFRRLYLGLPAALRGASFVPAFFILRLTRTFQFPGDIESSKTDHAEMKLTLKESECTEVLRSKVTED

[4] = biological target: T4, Solute carrier organic anion transporter family member 1A1 (Rattus norvegicus, UniProt P46720); assay: as §1; type: functional, cell-based
T4 sequence (P46720 whole entry): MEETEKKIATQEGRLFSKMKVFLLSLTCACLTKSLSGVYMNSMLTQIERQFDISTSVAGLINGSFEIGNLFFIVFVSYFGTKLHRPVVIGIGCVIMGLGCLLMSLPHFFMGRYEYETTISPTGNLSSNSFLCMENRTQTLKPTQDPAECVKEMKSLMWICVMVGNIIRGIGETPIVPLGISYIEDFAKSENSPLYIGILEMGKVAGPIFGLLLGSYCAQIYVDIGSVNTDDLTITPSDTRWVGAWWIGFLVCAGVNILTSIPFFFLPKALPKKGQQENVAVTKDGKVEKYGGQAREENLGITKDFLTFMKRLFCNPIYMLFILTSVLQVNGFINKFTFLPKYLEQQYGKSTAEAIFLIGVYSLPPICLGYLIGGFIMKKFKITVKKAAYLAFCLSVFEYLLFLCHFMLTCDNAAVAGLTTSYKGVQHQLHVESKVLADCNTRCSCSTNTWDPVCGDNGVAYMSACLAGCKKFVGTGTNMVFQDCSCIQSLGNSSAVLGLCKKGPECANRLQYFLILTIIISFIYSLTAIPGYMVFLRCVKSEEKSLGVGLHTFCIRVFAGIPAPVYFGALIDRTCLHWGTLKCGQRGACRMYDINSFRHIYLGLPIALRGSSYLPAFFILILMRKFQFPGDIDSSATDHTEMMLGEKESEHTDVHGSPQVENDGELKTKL

Row | Compound | Activity [1] | Activity [2] | Activity [3] | Activity [4]
1 | C=C[C@H]1C[N+]2(C)CC[C@H]1C[C@H]2[C@H](O)c1ccnc2ccc(OC)cc12 | is not a substrate [-] | is not a substrate [-] | – | –
2 | Nc1ccc(C(=O)NCC(=O)O)cc1 [AMINOHIPPURIC ACID] | is not a substrate [-] | is not a substrate [-] | is not a substrate [-] | –
3 | CC(C)[C@H](NC(=O)[C@H](CCC(=O)O)NC(=O)[C@H](Cc1ccccc1)NC(=O)[C@@H](C)NC(=O)[C@@H](N)Cc1ccc(O)cc1)C(=O)N[C@H](C(=O)NCC(N)=O)C(C)C [DELTORPHIN II] | is not a substrate [-] | is not a substrate [-] | – | –
4 | CCCCC[C@H](O)/C=C/[C@H]1[C@H](O)CC(=O)[C@@H]1C/C=C\CCCC(=O)O [DINOPROSTONE] | – | – | – | is not a substrate [-]
5 | CN(Cc1cnc2nc(N)nc(N)c2n1)c1ccc(C(=O)N[C@@H](CCC(=O)O)C(=O)O)cc1 [METHOTREXATE] | is not a substrate [-] | is not a substrate [-] | – | is not a substrate [-]

Reference: ChEMBL document CHEMBL2073894, “Localization of organic anion transporting polypeptide 4 (Oatp4) in rat liver and comparison of its substrate specificity with Oatp1, Oatp2 and Oatp3” (Pflugers Arch, 2001)
